Data published in patent US7368255B2, “RUNX3 gene showing anti-tumor activity and use thereof” (priority 2001, dated 2008).
Entries after “also recorded” stand apart in the source; their conditions may differ.

What was measured:
[1] = test system: RUNX3 gene expression; assay: Reactivation of RUNX3 gene expression, RT-PCR; assay type: cell-based, human; conditions: AZA 300 nM, TSA 1 mM, alone or in combination, 3 days, NUGC3, MKN28, MKN74 cell lines
Procedure: To determine whether the DNA methylation observed in Example 5-1 is the direct cause of the inactivation of the RUNX3 gene, the influence of a DNA methyltransferase inhibitor and a histone deacetylase inhibitor on the reactivation of the RUNX3 gene expression was analyzed.
The NUGC3, MKN28, and MKN74 cell lines (selected randomly from the cell lines showing no RUNX3 gene expression by RT-PCR analysis) were treated with […] (AZA, 300 nM), which inhibits DNA methyltransferase, and trichostatin A (TSA, […]), which inhibits histone deacetylase, alone or in combination. After 3 days of the treatment, total RNA was isolated from each cell line in accordance with the same standardized single-step guanidium method used in Example 4-1, and then analyzed for the expression of the RUNX3 gene by RT-PCR using the PS-N primer pair of SEQ. ID. NOS: 4 and 5.

[2] = test system: SNU16 cells; assay: TGF-β1-induced cell death, viable cell counts; assay type: cell-based; conditions: TGF-β1 1 ng/ml
[3] = test system: SNU16-Rx3-AS-c11 cells; assay: TGF-β1-induced cell death, viable cell counts; assay type: cell-based; conditions: TGF-β1 1 ng/ml; SNU16-Rx3-AS-c11 cells (antisense RUNX3)
[4] = test system: SNU16-Rx3-AS-c12 cells; assay: TGF-β1-induced cell death, viable cell counts; assay type: cell-based; conditions: TGF-β1 1 ng/ml; SNU16-Rx3-AS-c12 cells (antisense RUNX3)
[5] = test system: SNU16 cells; assay: Apoptotic DNA bands by genomic DNA electrophoresis after TGF-β1; assay type: cell-based; conditions: TGF-β1 1 ng/ml, 6 hours
Procedure: (§1) Cells dying through the programmed cell death pathway reveal a distinct pattern of DNA bands when electrophoresed in an agarose gel. After being treated with 1 ng/ml TGF-β1 for 6 hours, the control-SNU16, SNU16-Rx3-AS-c11, and SNU16-Rx3-AS-c12 strains were lysed to isolate genomic DNAs according to a standard method (Sambrook et al., 1988, Molecular Cloning: a laboratory manual, 2nd Ed. Cold Spring Harbor Laboratory, Cold Spring Harbor, N.Y., USA). 0.2 μg of each of the genomic DNA preparations was electrophoresed on a 1.5% agarose gel and visualized with ethidium bromide under UV light.

[6] = test system: SNU16-Rx3-AS-c11 cells; assay: as above; assay type: cell-based; conditions: TGF-β1 1 ng/ml, 6 hours
Procedure: as §1

[7] = test system: SNU16-Rx3-AS-c12 cells; assay: as above; assay type: cell-based; conditions: TGF-β1 1 ng/ml, 6 hours
Procedure: as §1

Compound | expression of the RUNX3 gene (RT-PCR) [1] | expression of the RUNX3 gene (RT-PCR) ([1]; listed as 5-aza-2-deoxycytidine) | time within which SNU16 cells were killed [2] | cell death after TGF-β1 treatment [3] | cell death after TGF-β1 treatment [4] | apoptotic DNA bands [5] | apoptotic DNA bands [6] | apoptotic DNA bands [7]
Nc1ncn([C@H]2C[C@H](O)[C@@H](CO)O2)c(=O)n1 | the expression of the RUNX3 gene was induced | allows the RUNX3 gene to be expressed | – | – | – | – | – | –
CC(/C=C/C(=O)NO)=C\[C@@H](C)C(=O)c1ccc(N(C)C)cc1 [trichostatin A] | allows the RUNX3 gene to be expressed; also recorded: the expression of the RUNX3 gene was induced | – | – | – | – | – | – | –
TGF-β1: TGF-β1 cytokine used at 1 ng/ml to induce cell death in SNU16 cells | – | – | ≤ 2 days | did not kill | did not kill | apoptotic DNA bands were formed; also recorded: These bands are apparent | no apoptotic bands were observed | no apoptotic bands were observed
